Assay results reported in patent publication US8759073B2, “Method for effectively controlling harmful organisms in large-scale culture of microalgae” (ENN Science & Technology Development Co., Ltd., priority 2009, dated 2014).
Entries after “also recorded” stand apart in the source; their conditions may differ.

What was measured:
Amoeba = test: Control of Amoeba contamination in microalgae culture, microscope examination; assay type: cell-based, Amoeba sp.
From the text: If the contaminated alga liquid is identified as alkali tolerant contamination, CO2 is aerated into the culture system of microalgae, so as to lower the pH value. At this time, the appearance of the algae cells and the harmful organisms are observed under a microscope. When the harmful organisms has been inhibited or inactivated, air is sufficiently aerated into the culture system and the pH value is adjusted back to the optimal pH suitable for microalgae growth. In an embodiment, the concentration of CO2 reaches saturation. In an alternative embodiment, the pH value can be adjusted back to the optimal pH suitable for microalgae growth with ammonia (one of the nitrogen sources used by microalgae). In an embodiment, the pH value can be adjusted back to the optimal pH suitable for microalgae growth with NaOH. In an embodiment, the used NaOH is 1M NaOH. In an embodiment, the pH is 5.6-5.7 in the alga culture system with a saturated concentration of CO2. In an alternative embodiment, if the algae are marine algae (such as in the case of Dunaliella tertiolecta), the aerated CO2 can maintain pH within the range of 6.0-6.5. After that, if the harmful organisms have been determined to be in control (for instance, most of Amoeba have become spherical), salinity is reduced by diluting with water (salinity is the ratio between the mass of the solute in seawater and the mass of seawater), followed by sufficient aeration with air, so as to adjust the pH and salinity to a condition suitable for alga growth. In an embodiment (for example, in the case that the alga is Nannochloris sp. or Dunaliella tertiolecta), CO2 can be aerated intermittently. In an embodiment, CO2 can be aerated at an interval of two hours. In an embodiment, the culture system is maintained at pH 6.0-6.5 for 2 days, followed by decreasing 1% of the salinity by adding water. In an embodiment, the culture system is maintained with saturated CO2 for about 28 hours. In an embodiment, CO2 is kept at saturation for about 27 hours in the culture system. In an embodiment, saturated CO2 is aerated continuously into the culture system for 36 hours. In an embodiment, CO2 is aerated periodically at an interval of 2 hours (pH is in the range of 5.0-8.5), for 2 days.
Microscope examination is always used as one of the bases for determining the growth status in the process of microalgae culture. As a result, all the early-stage contamination is found by microscope examination. For example, when the alga liquid without microscope examination is contaminated, it's color generally changes into e.g. brown or brown spots are observed on the wall of the reactor, etc. However the contamination has become severer once the color change is observed directly.
Salinity was reduced by 1% (e.g. from 9% to 8%) by way of dilution with water. Then air was sufficiently aerated.
Chlorella sp. […] Modified SM medium (see Table 2) was used. […] Then air was sufficiently aerated.
Chlorococcum sp. […] Modified BG11 medium (see Table 3) was used. […] CO2 was aerated continuously.
Chlorococcum sp. […] Modified BG11 medium (see Table 3) was used. […] Then air was sufficiently aerated. Eighteen hours later, Chlorococcum sp. could resume to grow.
Nannochloris sp. […] Modified BG11 medium (see Table 4) was used. […] Then CO2 was aerated periodically at an interval of 2 hours (pH ranged within 5.0-8.5).
Modified SM (see Table 2) was used. […] Then air was sufficiently aerated. Twenty-four hours later, the algae could resume to grow.
Then air was sufficiently aerated. Eighteen hours later, Chlorococcum sp. could resume to grow.
Modified SM (see Table 2) was used. […] One hour later, CO2 was aerated to saturation for 23 hour continuously (about pH 5.8). […] Then air was sufficiently aerated. Twenty-four hours later, the algae could resume to grow.

Chlorella sp. = test: Growth of cultured algae after treatment, 320 L bubbling reactor
Protocol: pH of the normally cultured microalgae is adjusted into various ranges. The growth rate of the microalgae is measured and their appearance is observed under a microscope.
(§1) Chlorella sp. (purchased from FACHB collection, Wuhan Aquatic Research Institure, Chinses Academy of Sciences) was cultured in a 320 L bubbling reactor (manufactured by Longfang Jiangchuan plexiglass Co. Ltd., φ300 mm×2 m) out-of-doors under a sunlight film. The culture condition included: a temperature of about 25 °C, a humidity of 60%-80%, and an illumination of 8000-20000 lux. Modified SM (see Table 2) (pH 7.0-9.0 for the normal culture) was used. […] Then, CO2 was aerated to adjust pH to be 7.0-8.0.
Chlorella sp. (purchased from FACHB collection, Wuhan Aquatic Research Institure, Chinses Academy of Sciences) was cultured in a 320 L bubbling reactor (manufactured by Longfang Jiangchuan plexiglass Co. Ltd., φ300 mm×2 m) out-of-doors under a sunlight film. Modified SM medium (see Table 2) (pH 7.0-9.0 for the normal culture) was used. The culture condition included: a temperature of about 25 °C, a humidity of 60%-80%, and an illumination of 8000-20000 lux. […] Then air was sufficiently aerated, and pH was raised to 7.0-7.5 after 4 hours.
Chlorella sp. (obtained from Jinan University) was cultured in a 320 L bubbling reactor (manufactured by Longfang Jiangchuan plexiglass Co. Ltd., φ300 mm×2 m) out-of-doors under a sunlight film (with a temperature of about 25 °C, a humidity of 60%-80%, and an illumination of 8000-20000 lux). Modified SM medium (see Table 2) was used. When Amoeba, Oxyrrhis and ciliate contaminations were observed is with an oil immersion lens (Nikon fluorescent invert microscope Ti series), pH was adjusted to 11.0-11.8 with 1M NaOH. […] Then, CO2 was aerated continuously to saturation (pH 5.6). […] Then air was sufficiently aerated.
as §1, with “film. Modified SM medium (see Table 2) (pH 7.0-9.0 for the normal culture) was used.” for “film.”, “lux.” for “lux. Modified SM (see Table 2) (pH 7.0-9.0 for the normal culture) was used.”, “Then” for “Then,”, “aerated and pH was adjusted” for “aerated”, “to” for “to adjust pH to be”
Chlorella sp. (obtained from Jinan University) was cultured in a 320 L bubbling reactor (manufactured by Longfang Jiangchuan plexiglass Co. Ltd., φ300 mm×2 m) out-of-doors under a sunlight film (with a temperature of about 25 °C, a humidity of 60%-80%, and an illumination of 8000-20000 lux). Modified SM medium (see Table 2) was used. […] Then CO2 was aerated to saturation (pH 5.6) for 24 hours continuously. […] Then air was sufficiently aerated.

O=C=O [CO2, carbon dioxide]
Amoeba, result of microscope examination (Amoeba; Example 1, Dunaliella tertiolecta culture, CO2 aerated intermittently, pH 6.0-6.5, two days): most Amoebae were found to become spherical | Amoeba, result of microscope examination (Amoeba; Example 1, after CO2 pH 6.0-6.5 two days, salinity reduced by 1%, air aerated, twenty-four hours later): almost no Amoeba | Amoeba, result of microscope examination (Amoeba; Example 3, Chlorella sp. culture, CO2 aerated continuously, saturated, pH 5.6-5.7, one hour): most Amoebae were found to become spherical and lose activity | Amoeba, result of microscope examination (Amoeba; Example 3, saturated CO2, twenty-seven hours after the first hour (about 28 hours)): almost no intact Amoeba was observed; also recorded: almost no Amoeba was found | Amoeba, result of microscope examination (Amoeba; Example 4, after 1M NaOH pH 11.0-11.8 1 h, CO2 to saturation (pH 5.6) 24 hours): no Amoeba | Amoeba, result of microscope examination (Amoeba; Example 5, Chlorococcum sp. culture, CO2 saturated, pH about 5.6-5.7, one hour): most Amoeba turned into spherical, were inactivated and could not change shape or move | Amoeba, result of microscope examination (Amoeba; Example 5, saturated CO2, twenty-seven hours later): almost no intact Amoeba were observed | Amoeba, result of microscope examination (Amoeba; Example 7, after 1M NaOH pH 11.5-12.0 1 h, CO2 to saturation (about pH 5.6) 24 hour): no Amoeba | Amoeba, result of microscope examination (Amoeba; Example 9, Nannochloris sp. culture, CO2 aerated periodically at an interval of 2 hours (pH 5.0-8.5), two days): no Amoeba was observed; also recorded: essentially in control | Amoeba, result of microscope examination (Amoeba; Example 10, Spirulina maxima culture, after 1M NaOH pH 11.5-12.0 1 h, CO2 to saturation (about pH 5.8) 23 hour): no Amoeba | Amoeba, result of microscope examination (Amoeba; Example 12, after 1M ammonia pH 9.0 1 h, CO2 to saturation (pH 5.6) 24 hours): no Amoeba | Amoeba, result of microscope examination (Amoeba; Example 14, after 1M ammonia pH 9.0 1 h, CO2 to saturation (about pH 5.6) 24 hour): no Amoeba | Amoeba, result of microscope examination (Amoeba; Example 15, Spirulina maxima culture, after 1M ammonia pH 10.0 1 h, CO2 to saturation (about pH 5.8) 23 hour): no Amoeba | growth of the algae (Chlorella sp.): almost not affected | time until algae started to grow (FIG. 4) (Chlorella sp.): About 28 hours | time until algae started to grow after recovery of pH7.0 or above (Chlorella sp.; pH 7): 24 hours | time until algae resumed to grow after air aeration (Chlorella sp.; pH 9): Twenty-four
